Legend:
[1] = target: T1, mouse P2X1 receptor (mP2X1) (Mus musculus, UniProt P51576); test: Two-electrode voltage clamp assay, recombinant mP2X1 receptor in Xenopus oocytes; type: cell-based; conditions: 10 μM compound, 2 μM ATP, mean±SEM n≥3 (footnote c), read-out: mP2X1 % inhibitory effect at 10 μM
T1 construct: expressed in transfected cells; host or cells: Xenopus oocytes (cRNA microinjection)
T1 sequence (P51576 1-399): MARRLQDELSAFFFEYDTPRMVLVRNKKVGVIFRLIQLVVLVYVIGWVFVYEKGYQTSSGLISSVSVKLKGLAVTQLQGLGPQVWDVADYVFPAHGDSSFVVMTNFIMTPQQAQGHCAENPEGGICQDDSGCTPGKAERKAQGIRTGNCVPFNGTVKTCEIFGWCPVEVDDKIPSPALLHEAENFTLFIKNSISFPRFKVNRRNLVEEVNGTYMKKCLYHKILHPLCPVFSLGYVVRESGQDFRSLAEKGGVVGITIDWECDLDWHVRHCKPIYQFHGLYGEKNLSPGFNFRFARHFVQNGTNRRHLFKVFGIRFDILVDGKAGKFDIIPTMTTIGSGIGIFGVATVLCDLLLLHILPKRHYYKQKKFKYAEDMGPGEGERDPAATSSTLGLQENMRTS
Method: 1-1. Two-Electrode Voltage Clamp Assay for Recombinant mP2X1 and hP2X3 Receptors
Xenopus oocytes were isolated and incubated with 270 U/mg of collagenase at 23 to 24° C. for 1.5 hours. Defolliculated oocytes were kept in Barth's solution at 18° C. After 1 day, the defolliculated oocytes were each microinjected cytosolically with mP2X1 and human P2X3 receptor cRNA ([…], 1 μg/mL), incubated for 24 hours at 18° C. in Barth's solution. The cRNA-injected oocytes were kept for 12 days at 4° C. ATP-activated membrane currents (Vh=−70 mV) were recorded from the cRNA-injected oocytes using the two-electrode voltage clamp technique (Axoclamp 2B amplifier). Voltage recording ([…] tip resistance) and current-recording microelectrodes (5 MΩ tip resistance) were filled with 3.0 M KCl. Oocytes were placed in an electrophysiological chamber continuously superfused with Ringer's solution (5 mL/min, at 18° C.) containing 110 mM NaCl, 2.5 mM KCl, 5 mM HEPES and 1.8 mM BaCl2, with pH adjusted to 7.5. To induce an evoked current, 2 μM ATP was superfused for 60 to 120 seconds and then washed for 20 min. For data analysis, the ATP-evoked current was normalized at pH 7.5. The compounds were introduced to the fixed oocytes 20 minutes prior to ATP exposure in the electrophysiological chamber. IC50 values (the concentration of the compound required to inhibit the ATP response by 50%) were determined by Hill plots designed using the Chemical Formula: log(I/Imax−1), where I is the current evoked by ATP in the presence of an antagonist. Data are presented as mean±SEM (n≥3) from different batches of oocytes.
In order to investigate the structure-activity relationship (SAR) of the compounds synthesized in the present invention, the antagonistic activity was evaluated by a two-electrode voltage clamp (TEVC) assay in Xenopus oocytes expressing the recombinant mP2X1 or hP2X3, respectively. The hP2X7R antagonistic activity was assessed using an ethidium ion accumulation assay in human HEK293 cells stably expressing the recombinant human P2X7R.

CYP1A2 = target: T2, CYP1A2 (Homo sapiens, UniProt P05177); test: CYP inhibition assay (Vivid fluorometric), 1A2; type: biochemical; conditions: human, recombinant human CYP1A2, pH 8; 1 μM in Table 5; read-out: CYP450 inhibition, 1A2 isozyme
T2 construct: purchased Invitrogen
T2 sequence (P05177 1-516): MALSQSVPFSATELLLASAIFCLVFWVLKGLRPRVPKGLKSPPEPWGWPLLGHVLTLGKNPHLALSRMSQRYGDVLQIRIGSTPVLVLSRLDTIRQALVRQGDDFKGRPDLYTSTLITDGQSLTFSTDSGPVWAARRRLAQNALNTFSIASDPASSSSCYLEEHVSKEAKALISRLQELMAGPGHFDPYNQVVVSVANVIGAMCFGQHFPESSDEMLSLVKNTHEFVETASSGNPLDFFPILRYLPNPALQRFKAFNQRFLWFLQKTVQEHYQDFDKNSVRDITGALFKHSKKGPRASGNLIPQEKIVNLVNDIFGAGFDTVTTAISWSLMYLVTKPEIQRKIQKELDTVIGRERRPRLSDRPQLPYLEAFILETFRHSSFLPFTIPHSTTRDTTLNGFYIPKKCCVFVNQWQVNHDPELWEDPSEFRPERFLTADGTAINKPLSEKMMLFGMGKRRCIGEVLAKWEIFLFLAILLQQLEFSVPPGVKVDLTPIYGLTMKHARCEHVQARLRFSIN
Method: (§1) CYP450 (1A2, 2C9, 3A4) enzyme assay was performed by a fluorometric assay using a Vivid® CYP450 screening kit (Invitrogen, USA, CA) in a 96-well black plate according to manufacturer's instructions with some modifications. The assay was performed at room temperature, and the final assay volume was 100 μL. […]
(§2) A master pre-mixture (enzyme (0.5 nmol recombinant human CYP450 enzyme)/NADP regeneration solution (333 mM glucose-6-phosphate dissolved, 30 U/mL glucose-6-phosphate dehydrogenase in 100 mM KH2PO4 solution at pH 8.0)) was prepared as a CYP450 reaction buffer (200 mM KH2PO4, pH 8.0). The master pre-mixture was added to each well of the 96 well plate, followed by the vehicle DMSO (control) and test compounds, and the mixture was preincubated for 10 minutes in the plate for background reading. Subsequently, the enzyme reaction was immediately initiated through the addition of CYP450 substrate/NADP^+ mixture. After incubation for 40 minutes, the fluorescence of the product was measured with a CHAMELEON™ multi-technology plate reader (2C9, 3A4: excitation wavelength of 530 nm and emission wavelength of 590 nm, 1A2: excitation wavelength of 415 nm and emission wavelength of 460 nm). The effect of the test compounds on CYP450 (1A2, 2C9, 3A4) was expressed as the percentage of enzyme activity.

CYP450 1A2 = target: T3, CYP450 1A2 (Homo sapiens, UniProt P05177); test: CYP inhibition assay (Vivid fluorometric), 1A2; type: biochemical; conditions: 1 μM in Table 5
T3 construct: purchased Invitrogen
T3 sequence (P05177 1-516): T2 sequence (P05177 1-516)
Method: as §1, §2

| Compound | inhibition at 10 µM [1] [%] | inhibition at 40 min, 1 µM (CYP1A2) [%] | CYP450 inhibition, 1A2 isozyme (CYP450 1A2) |
| --- | --- | --- | --- |
| CCCc1nc(Cc2cccc(Oc3ccccc3)c2)c(C)c(C(=O)O)c1O [Compound 29, 3-Hydroxy-5-methyl-6-(3-phenoxybenzyl)-2-propylisonicotinic acid] | 23.3 ± 4.8 | 36 ± 3 | weak inhibitory effect |
| CCCc1nc(CCc2ccc(OC)cc2)c(C(=O)O)c(C(=O)O)c1O [Compound 13d, 5-Hydroxy-2-(4-methoxyphenethyl)-6-propylpyridine-3,4-dicarboxylic acid] | 42.8 ± 7.4 | – | – |

— patent US11319289B2, “5-hydroxy pyridine-based compound for use as P2X1 and P2X3 receptor antagonist and pharmaceutical composition comprising same” (GWANGJU INSTITUTE OF SCIENCE AND TECHNOLOGY, priority 2017, dated 2022)
